Data reported in patent publication US20230017786A1, “DEXTR[…] A DISEASE-MODIFYING TREATMENT FOR NEUROPSYCHIATRIC DISORDERS AND DISEASES” (priority 2020, published 2023).

Columns and labels:
[1] = biological target: T1, human NMDA receptor GluN1-GluN2A (Homo sapiens, UniProt Q05586+Q12879); assay: FLIPR calcium assay, quinolinic acid, gentamicin, dextromethadone (Example 5 Part II), GluN1-GluN2A-CHO; type: cell-based; set-up: calcium response (mean±SEM): unit not given here; details: for calcium response (mean±SEM): GluN2A, n=42
T1 construct: expressed in transfected cells; host or cells: CHO
Description: (§1) Quinolinic acid or gentamicin CRCs were also produced, in presence of 10 μM glycine.
(§2) Test items were evaluated in FLIPR for their ability to modulate, alone or in combination, calcium entry in presence of […], using four CHO cell lines expressing diheteromeric human NMDA receptor (NMDAR): GluN-/GluN2A-CHO, GluN1-GluN2B-CHO, GluN1-GluN2C-CHO, GluN1-GluN2D-CHO.
(§3) The first aim of the study was to evaluate quinolinic acid or gentamicin CRC effect in the presence of 10 μM glycine.
(§4) FLIPR determination of intracellular calcium level was used as a read-out for NMDAR activation.
(§5) 400× compound plate was stored at −20° C. till FLIPR experimental day.
(§6) A 4× compound plate was generated from 400× compound plate by addition of up to 30 μl/well of compound buffer on FLIPR experimental day.
(§7) A FLIPR system was used to monitor intracellular calcium level in NMDAR cell lines, pre-loaded for 1 hour with Fluo-4, and then washed with assay buffer.
(§8) Y=Bottom+(Top−Bottom)/(1+10^((LogEC50−X)*HillSlope))
(§9) Test item CRC data were plotted by Prism 8 GraphPad software, in the different experimental conditions. And, column analysis, performed by Prism 8 GraphPad software, was one way ANOVA followed by Tukey's multiple comparisons test, with a single pooled variance.

[2] = biological target: T2, human NMDA receptor GluN1-GluN2B (Homo sapiens, UniProt Q05586+Q13224); assay: FLIPR calcium assay, quinolinic acid, gentamicin, dextromethadone (Example 5 Part II), GluN1-GluN2B-CHO; type: cell-based; details: for calcium response (mean±SEM): GluN2B, n=42; for Response at max conc (%): quinolinic acid CRC, max 1,000 μM
T2 construct: expressed in transfected cells; host or cells: CHO
Description: as §1, §2, §3, §4, §5, §6, §7, §8, §9

[3] = biological target: T3, human NMDA receptor GluN1-GluN2C (Homo sapiens, UniProt Q05586+Q14957); assay: FLIPR calcium assay, quinolinic acid, gentamicin, dextromethadone (Example 5 Part II), GluN1-GluN2C-CHO; type: cell-based; details: for calcium response (mean±SEM): GluN2C, n=42
T3 construct: expressed in transfected cells; host or cells: CHO
Description: as §1, §2, §3, §4, §5, §6, §7, §8, §9

[4] = biological target: rat GluN1-GluN2B receptor (Rattus norvegicus, UniProt P35439+Q00960); details: Banke and Traynelis, 2003; read-out: potency; cited from earlier work
[5] = biological target: T4, human NMDA receptor GluN1-GluN2D (Homo sapiens, UniProt O15399+Q05586); assay: FLIPR calcium assay, quinolinic acid, gentamicin, dextromethadone (Example 5 Part II), GluN1-GluN2D-CHO; type: cell-based; details: for calcium response (mean±SEM): GluN2D, n=42
T4 construct: expressed in transfected cells; host or cells: CHO
Description: as §1, §2, §3, §4, §5, §6, §7, §8, §9

[6] = 0.04 μM L-Glu + 100 μM QA, 10 μM glycine
[7] = 0.04 μM L-Glu + 1000 μM QA, 10 μM glycine
[8] = 0.2 μM L-Glu + 100 μM QA, 10 μM glycine
[9] = 0.2 μM L-Glu + 1000 μM QA, 10 μM glycine
[10] = 100 μM QA, 10 μM glycine, 100% = 10 μM L-glutamate plus 10 μM glycine
[11] = 1000 μM QA, 10 μM glycine, 100% = 10 μM L-glutamate plus 10 μM glycine
[12] = 1000 μM QA, 10 μM glycine, 100% = 10 μM L-glutamate plus 10 μM glycine, listed as QA
[13] = CRC in presence of 10 μM glycine
[14] = quinolinic acid CRC, max 1,000 μM, 10 μM glycine

T4 sequence (O15399 28-1336, other chains not shown): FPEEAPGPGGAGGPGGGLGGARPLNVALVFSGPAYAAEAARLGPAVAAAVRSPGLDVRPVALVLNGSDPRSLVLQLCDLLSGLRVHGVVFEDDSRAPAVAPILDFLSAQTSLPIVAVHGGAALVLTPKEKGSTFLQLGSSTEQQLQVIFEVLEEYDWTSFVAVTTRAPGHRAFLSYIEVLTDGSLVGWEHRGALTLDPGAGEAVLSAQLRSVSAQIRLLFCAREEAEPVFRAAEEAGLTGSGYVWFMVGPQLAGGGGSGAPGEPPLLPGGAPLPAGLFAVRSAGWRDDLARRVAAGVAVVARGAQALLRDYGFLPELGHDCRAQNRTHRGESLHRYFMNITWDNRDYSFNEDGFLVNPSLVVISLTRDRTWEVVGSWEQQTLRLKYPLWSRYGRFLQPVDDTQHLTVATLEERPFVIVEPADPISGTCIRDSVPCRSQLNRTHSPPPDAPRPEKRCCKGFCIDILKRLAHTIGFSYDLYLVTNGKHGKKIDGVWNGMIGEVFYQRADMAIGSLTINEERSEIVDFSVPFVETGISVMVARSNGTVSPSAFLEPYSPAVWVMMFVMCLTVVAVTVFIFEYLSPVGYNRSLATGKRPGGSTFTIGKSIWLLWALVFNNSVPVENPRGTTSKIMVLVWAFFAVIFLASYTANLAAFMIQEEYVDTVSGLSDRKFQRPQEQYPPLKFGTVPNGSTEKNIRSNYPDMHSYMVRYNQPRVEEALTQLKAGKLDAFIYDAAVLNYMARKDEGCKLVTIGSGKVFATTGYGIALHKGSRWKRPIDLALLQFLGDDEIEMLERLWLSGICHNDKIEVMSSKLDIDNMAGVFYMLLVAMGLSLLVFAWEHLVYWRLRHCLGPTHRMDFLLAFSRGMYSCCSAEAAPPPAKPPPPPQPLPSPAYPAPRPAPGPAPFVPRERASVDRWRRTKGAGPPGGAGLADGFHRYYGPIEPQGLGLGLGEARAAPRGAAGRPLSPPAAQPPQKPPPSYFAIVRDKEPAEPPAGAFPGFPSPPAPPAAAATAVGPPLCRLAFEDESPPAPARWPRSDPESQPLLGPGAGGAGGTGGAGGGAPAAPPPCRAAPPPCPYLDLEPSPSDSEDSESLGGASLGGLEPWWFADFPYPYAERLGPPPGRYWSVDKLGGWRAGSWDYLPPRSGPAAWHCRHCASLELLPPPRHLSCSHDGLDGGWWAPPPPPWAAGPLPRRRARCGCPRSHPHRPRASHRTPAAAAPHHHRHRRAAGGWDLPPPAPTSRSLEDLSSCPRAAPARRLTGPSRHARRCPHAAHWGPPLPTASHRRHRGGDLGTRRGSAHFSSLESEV
T1 sequence (Q12879 23-1464, other chains not shown): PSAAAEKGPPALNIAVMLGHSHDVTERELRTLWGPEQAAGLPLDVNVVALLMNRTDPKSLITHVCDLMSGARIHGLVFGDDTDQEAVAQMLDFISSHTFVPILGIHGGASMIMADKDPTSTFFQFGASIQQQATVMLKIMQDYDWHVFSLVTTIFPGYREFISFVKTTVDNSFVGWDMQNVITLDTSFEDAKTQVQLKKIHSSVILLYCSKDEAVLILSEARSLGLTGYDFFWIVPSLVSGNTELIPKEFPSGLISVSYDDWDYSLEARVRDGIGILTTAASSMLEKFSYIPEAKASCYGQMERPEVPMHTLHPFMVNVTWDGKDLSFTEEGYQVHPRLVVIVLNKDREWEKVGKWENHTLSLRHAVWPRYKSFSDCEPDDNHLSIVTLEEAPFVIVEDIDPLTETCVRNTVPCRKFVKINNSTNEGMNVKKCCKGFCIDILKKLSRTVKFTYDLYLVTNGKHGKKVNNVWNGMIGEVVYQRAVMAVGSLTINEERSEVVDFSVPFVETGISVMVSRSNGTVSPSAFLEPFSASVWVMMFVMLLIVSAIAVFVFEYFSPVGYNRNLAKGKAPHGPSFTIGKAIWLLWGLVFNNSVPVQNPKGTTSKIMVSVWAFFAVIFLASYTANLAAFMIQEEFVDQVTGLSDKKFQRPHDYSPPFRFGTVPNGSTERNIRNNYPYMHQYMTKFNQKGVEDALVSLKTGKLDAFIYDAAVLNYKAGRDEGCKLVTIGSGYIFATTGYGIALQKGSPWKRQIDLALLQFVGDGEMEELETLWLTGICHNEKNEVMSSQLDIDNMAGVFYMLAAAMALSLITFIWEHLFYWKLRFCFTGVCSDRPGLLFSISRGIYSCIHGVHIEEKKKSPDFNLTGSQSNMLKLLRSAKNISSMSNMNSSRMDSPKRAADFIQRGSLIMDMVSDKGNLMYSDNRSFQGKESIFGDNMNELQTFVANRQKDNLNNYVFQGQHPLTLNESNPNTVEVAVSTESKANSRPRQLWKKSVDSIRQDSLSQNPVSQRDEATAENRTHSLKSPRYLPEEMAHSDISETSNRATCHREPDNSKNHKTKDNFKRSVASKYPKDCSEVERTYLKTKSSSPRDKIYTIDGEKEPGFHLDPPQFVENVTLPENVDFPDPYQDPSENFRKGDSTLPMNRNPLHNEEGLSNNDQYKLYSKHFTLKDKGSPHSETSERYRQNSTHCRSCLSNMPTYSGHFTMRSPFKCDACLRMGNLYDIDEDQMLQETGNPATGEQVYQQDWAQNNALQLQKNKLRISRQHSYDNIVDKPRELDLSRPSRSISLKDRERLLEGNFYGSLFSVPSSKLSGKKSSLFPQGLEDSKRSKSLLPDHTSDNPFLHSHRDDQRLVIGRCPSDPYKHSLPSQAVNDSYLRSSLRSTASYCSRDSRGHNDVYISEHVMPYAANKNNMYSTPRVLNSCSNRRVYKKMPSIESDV
T3 sequence (Q14957 20-1233, other chains not shown): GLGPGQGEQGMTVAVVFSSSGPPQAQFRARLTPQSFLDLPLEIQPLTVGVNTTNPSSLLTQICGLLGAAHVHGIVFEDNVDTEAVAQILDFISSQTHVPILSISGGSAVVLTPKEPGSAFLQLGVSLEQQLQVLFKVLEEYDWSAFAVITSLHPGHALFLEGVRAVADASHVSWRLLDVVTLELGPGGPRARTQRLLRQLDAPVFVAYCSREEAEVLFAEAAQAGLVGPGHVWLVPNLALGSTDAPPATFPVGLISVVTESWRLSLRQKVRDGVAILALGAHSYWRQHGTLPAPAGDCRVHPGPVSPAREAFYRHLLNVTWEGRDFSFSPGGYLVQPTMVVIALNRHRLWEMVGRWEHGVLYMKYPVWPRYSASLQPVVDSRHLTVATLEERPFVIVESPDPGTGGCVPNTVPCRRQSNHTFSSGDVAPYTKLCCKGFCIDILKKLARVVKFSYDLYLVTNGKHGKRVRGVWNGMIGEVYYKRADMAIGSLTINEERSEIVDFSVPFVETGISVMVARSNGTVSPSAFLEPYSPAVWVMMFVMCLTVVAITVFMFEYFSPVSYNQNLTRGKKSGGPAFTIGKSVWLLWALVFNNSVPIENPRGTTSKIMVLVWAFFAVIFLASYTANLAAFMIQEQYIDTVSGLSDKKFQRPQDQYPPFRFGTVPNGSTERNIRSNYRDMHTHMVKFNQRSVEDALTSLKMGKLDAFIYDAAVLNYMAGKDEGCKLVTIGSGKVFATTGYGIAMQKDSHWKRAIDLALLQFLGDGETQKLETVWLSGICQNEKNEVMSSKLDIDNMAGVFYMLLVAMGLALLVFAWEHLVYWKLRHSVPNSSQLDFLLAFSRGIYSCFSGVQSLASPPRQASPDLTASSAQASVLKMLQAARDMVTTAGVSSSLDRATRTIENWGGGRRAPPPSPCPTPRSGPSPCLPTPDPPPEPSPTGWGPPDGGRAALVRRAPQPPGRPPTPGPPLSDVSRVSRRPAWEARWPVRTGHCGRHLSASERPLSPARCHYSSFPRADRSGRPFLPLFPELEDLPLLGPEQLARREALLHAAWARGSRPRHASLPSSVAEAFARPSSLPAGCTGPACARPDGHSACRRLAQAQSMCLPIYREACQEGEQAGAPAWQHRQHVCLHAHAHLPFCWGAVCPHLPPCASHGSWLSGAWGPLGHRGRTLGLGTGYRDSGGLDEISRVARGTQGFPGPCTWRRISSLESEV

SMILES: O=C(O)c1cccnc1C(=O)O [Quinolinic acid]
- calcium response (mean±SEM) [1, 6]: 7.5 ± 0.4
- calcium response (mean±SEM) [1, 7]: 41 ± 1.0
- calcium response (mean±SEM) [1, 8]: 26 ± 0.6
- calcium response (mean±SEM) [1, 9]: 46 ± 0.9
- EC50 ([1]; 10 μM glycine, fit with maximal response constrained at 75%, read-out: EC50): 850 µM
- % effect on calcium entry, 100 QA [1, 10]: 2.5 ± 0.3%
- calcium response (mean±SEM) ([1]; 1000 μM QA, 10 μM glycine): 41 ± 1.2
- % effect on calcium entry, 1000 QA [1, 11]: 41±1.1%
- % effect on calcium entry, 1000 QA [1, 12]: 41 ± 1.2%
- % effect on calcium entry, 1000 QA ([1]; 1000 μM QA, 10 μM glycine, 100% = 10 μM L-glutamate plus 10 μM glycine, listed as quinolinic acid): 41±1.2%
- Minimal response (%) [1, 13]: −1.9%
- Response at max conc (%) [1, 14]: 40%
- calcium response (mean±SEM) [2, 6]: 3.7 ± 1.3
- calcium response (mean±SEM) [2, 7]: 27 ± 2.2
- calcium response (mean±SEM) [2, 8]: 27 ± 0.8
- calcium response (mean±SEM) [2, 9]: 27 ± 1.5
- EC50 ([2]; 10 μM glycine, read-out: EC50): 170 µM
- % effect on calcium entry, 100 QA [2, 10]: 0.9 ± 0.7%
- calcium entry in CRC ([2]; 333 μM quinolinic acid, 10 μM glycine): 23±3.0%
- calcium response (mean±SEM) ([2]; 1000 μM QA, 10 μM glycine): 37 ± 1.3
- % effect on calcium entry, 1000 QA [2, 11]: 37±1.3%
- % effect on calcium entry, 1000 QA [2, 12]: 37 ± 1.3%
- Minimal response (%) [2, 13]: −2.1%
- Response at max conc (%) ([2]; 10 μM glycine): 25%
- Response at max conc (%) ([2]; 10 μM glycine, listed as quinolinic acid): 25±2.1%
- calcium response (mean±SEM) [3, 6]: −2.0 ± 1.1
- calcium response (mean±SEM) [3, 7]: −4.1 ± 0.9^
- calcium response (mean±SEM) [3, 8]: 27 ± 1.1
- calcium response (mean±SEM) [3, 9]: 6.6 ± 0.8
- EC50 ([3]; 10 μM glycine, read-out: EC50): > 1000 µM
- % effect on calcium entry, 100 QA [3, 10]: −2.8 ± 0.6%
- calcium response (mean±SEM) ([3]; 1000 μM QA, 10 μM glycine): −5.5 ± 0.4^
- % effect on calcium entry, 1000 QA [3, 11]: −5.5 ± 0.4^ %
- Minimal response (%) [3, 13]: −4.0%
- intracellular calcium increase elicited by 0.2 μM L-glutamate ([3]; plus 1000 μM quinolinic acid, 10 μM glycine): 6.6±0.8%
- Response at max conc (%) [3, 14]: −4.0%
- EC50 [4]: 518 ± 35 µM
- calcium response (mean±SEM) [5, 6]: 26 ± 1.2
- calcium response (mean±SEM) [5, 7]: 53 ± 2.3
- calcium response (mean±SEM) [5, 8]: 93 ± 1.0
- calcium response (mean±SEM) [5, 9]: 58 ± 1.6
- EC50 ([5]; 10 μM glycine, read-out: EC50): 520 µM
- % effect on calcium entry, 100 QA [5, 10]: −0.1 ± 0.4%
- calcium response (mean±SEM) ([5]; 1000 μM QA, 10 μM glycine): 55 ± 1.1
- % effect on calcium entry, 1000 QA [5, 11]: 55±1.1%
- % effect on calcium entry, 1000 QA [5, 12]: 55 ± 1.1%
- Minimal response (%) [5, 13]: −1.3%
- Response at max conc (%) [5, 14]: 50%
